From US20130065910A1, “ORAL MECLIZINE AQUEOUS FORMULATIONS WITH TASTE FLAVORING AGENT” (COMPREHENSIVE DRUG ENTERPRISES LTD., priority 2010, published 2013)
Structures can show the parent of a compound that is named as a salt.

Key:
[1] = Solubility of meclizine hydrochloride in Solutol HS15 and HP-β-CD solutions; format: physicochemical; conditions: aqueous with cosolvent or surfactant or cyclodextrin, thermodynamic from solid, room temperature (22° C.)
Method: The ability of Solutol® HS15 and HP-β-CD to enhance the aqueous solubility of meclizine hydrochloride is determined in this example.
Aqueous solutions containing 0.1, 0.5, 1, 2.5, 5, 10, 15, 20, and 25% (w/v) (w/v) of Solutol® HS15 or HP-β-CD solubilizers were prepared. 10 mg samples of meclizine hydrochloride were added to a 4 ml portion of each of the above solutions. The samples were left to be stirred overnight at room temperature (22° C.). If during this time all drug dissolved, additional meclizine was added until a suspension was formed (i.e. saturated drug solution formed). After further stirring for up to 24 hours, suspensions were centrifuged at 14000 rpm for 10 minutes, and then the supernatants were filtered (0.45 μm filter, Sartorius, Germany) to obtain saturated meclizine hydrochloride solutions. The filtrate samples were diluted and detected by HPLC and the concentration of meclizine hydrochloride in the samples was calculated with the calibration curve made from standard solutions of meclizine hydrochloride.

[2] = cited from earlier work
acetylcholine = conditions: in vivo; cited from earlier work
[3] = up to 225 mg/day for 9.5 years; cited from earlier work
[4] = tested on: isolated guinea pig ileum; conditions: cited from earlier work
histamine [5] = conditions: guinea pigs; cited from earlier work
histamine [6] = conditions: in vivo; cited from earlier work

Cc1cccc(CN2CCN(C(c3ccccc3)c3ccc(Cl)cc3)CC2)c1 (stereo not shown) [meclizine hydrochloride]
solubility ([1]; 0.1% (w/v) HP-β-CD aqueous solution): 3.4 mg/mL | solubility ([1]; 0.1% (w/v) Solutol HS15 aqueous solution): 2.6 mg/mL | solubility ([1]; 0.5% (w/v) HP-β-CD aqueous solution): 6.1 mg/mL | solubility ([1]; 0.5% (w/v) Solutol HS15 aqueous solution): 3.2 mg/mL | solubility ([1]; 1% (w/v) HP-β-CD aqueous solution): 7.1 mg/mL | solubility ([1]; 1% (w/v) Solutol HS15 aqueous solution): 4.3 mg/mL | solubility ([1]; 2.5% (w/v) HP-β-CD aqueous solution): 9.9 mg/mL | solubility ([1]; 2.5% (w/v) Solutol HS15 aqueous solution): 5.2 mg/mL | solubility ([1]; 5% (w/v) HP-β-CD aqueous solution): 14.3 mg/mL | solubility ([1]; 5% (w/v) Solutol HS15 aqueous solution): 9.2 mg/mL | solubility ([1]; 10% (w/v) HP-β-CD aqueous solution): 24.6 mg/mL | solubility ([1]; 10% (w/v) Solutol HS15 aqueous solution): 15.4 mg/mL | solubility ([1]; 15% (w/v) HP-β-CD aqueous solution): 30.5 mg/mL | solubility ([1]; 15% (w/v) Solutol HS15 aqueous solution): 22.8 mg/mL | solubility ([1]; 20% (w/v) HP-β-CD aqueous solution): 34.3 mg/mL | solubility ([1]; 20% (w/v) Solutol HS15 aqueous solution): 36.8 mg/mL | solubility ([1]; 25% (w/v) HP-β-CD aqueous solution): 37.9 mg/mL | solubility ([1]; 25% (w/v) Solutol HS15 aqueous solution): 40.1 mg/mL | solubility in alcohol ([2]; alcohol): slightly soluble | solubility in water ([2]; water): practically insoluble

Cc1cccc(CN2CCN(C(c3ccccc3)c3ccc(Cl)cc3)CC2)c1 (stereo not shown) [meclizine, 1-[(4-chlorophenyl)-phenyl-methyl]-4-[(3-methylphenyl)methyl]piperazine]
blocking action against acetylcholine (acetylcholine): slight blocking action | tolerability (adverse effects) [3]: no adverse effect reported | inhibiting the spasmogenic action of histamine [4]: relatively weak | protective activity against nebulized histamine and lethal doses of intravenously injected histamine (histamine [5]): marked protective activity | blocking the vasodepressor response to histamine (histamine [6]): marked effect
